“Also recorded” adds a separate entry of the source. Where two headings read alike, the source gives them in different places.
What was measured:
washed platelets = assay: Lactate dehydrogenase (LDH)-based cytotoxicity assay on washed platelets; settings: for cytotoxicity on platelets by LDH leakage (in words): 100 μM, 10 min at 37°C; for Cytotoxic activity Mean (%) ± SD: LDH release as percentage of total enzyme activity (0.3% Triton X-100 lysis), 100 μM compound, 10 min, 37°C, washed platelets
Description: Platelets were obtained from citrated whole blood of healthy volunteers (two weeks drugs-free) with written informed consent, as previously described (Fuentes et al., [2014a]).
Washed platelets (200 × 10^9 platelets/L) were incubated for 10 min at 37°C with DMSO (vehicle) 0.2% or 100 μM of compounds. Then, platelets are centrifuged (800 × g for 8 min), and 50 μL aliquots of the resulting supernatant analyzed by the LDH assay (Cayman Chemical, USA).

[1] = test system: collagen-stimulated platelets; assay: Platelet aggregation induced by collagen (light transmission, lumi-aggregometer); format: cell-based, human; settings: platelet aggregation induced by collagen (1 μg/mL), washed platelets pre-incubated 5 min at 37°C, read-out: IC50 (μM) ± SD Collagen (1 μg/mL)
Description: (§1) Platelet aggregation was evaluated using a lumi-aggregometer (Chrono-Log, Haverton, PA, USA) and monitored by light transmission according to Fuentes et al. (Fuentes et al., [2014a]; Mendez et al., [2020]). Briefly, washed platelets (200 × 10^9 platelets/L) were pre-incubated for 5 min at 37°C and pH 7.4 with vehicle or different doses of compounds; then platelet aggregation was induced by TRAP-6 (5 μM) or collagen (1 μg/mL) and measured for 5 min at 37°C while stirring.
(§2) The data obtained were presented as a mean ± standard deviation (SD) of three independent experiments and analyzed using Prism 8.3 software (GraphPad Inc., San Diego CA, USA). The half-maximal inhibitory concentration (IC50) was calculated from dose-response curves. Differences between samples were analyzed using Tukey or paired t-test (Vaiyapuri et al., [2013]). P-values < 0.05 were considered as significant (Fuentes et al., [2014b]; Munoz-Gutierrez et al., [2017]).

[2] = test system: TRAP-6-stimulated platelets; assay: Platelet aggregation induced by TRAP-6 (light transmission, lumi-aggregometer); format: cell-based, human; settings: platelet aggregation induced by TRAP-6 (5 μM), washed platelets pre-incubated 5 min at 37°C, read-out: IC50 (μM) ± SD TRAP-6 (5 μM)
Description: as §1, §2

platelets = assay: Externalization of phosphatidylserine by annexin-V binding (flow cytometry); format: cell-based, human; settings: Figure 3A
Description: (§3) Externalization of phosphatidylserine, glycoprotein (GP) IIb/IIIa activation, P-selectin expression, CD63 release, and ROS levels on platelets were determined by flow cytometry (Ritchie et al., [2000]; Fuentes et al., [2014b]; Walsh et al., [2014]). All results were analyzed in the Accuri C6 flow cytometer (BD, Biosciences, USA).
(§4) Figure 3 Antiplatelet activity of compound 4. (A) Externalization of phosphatidylserine was evaluated by annexin-V binding. (B) Levels of CD63 on the surface of platelets after activation by TRAP-6 (5 μM) or collagen (1 μg/mL). (C) P-selectin expression was measured by flow cytometry in platelets stimulated with TRAP-6 (5 μM) or collagen (1 μg/mL). (D) GPIIb/IIIa activation stimulated by TRAP-6 (5 μM) or collagen (1 μg/mL) was determined by flow cytometry using the PAC-1 antibody. The graph depicts the mean ± SD of n = 3 experiments. The black graph is the control of resting platelets. ^*p < 0.05, ^**p < 0.01, and ^***p < 0.001 vs. 0 (vehicle DMSO 0.2%).

GPIIb/IIIa = GPIIb/IIIa activation by PAC-1 antibody binding (flow cytometry); format: cell-based, human; settings: Figure 3D
Description: as §3, §4
Small structural changes led to the synthesis of non-toxic lawsone thio-derivatives with potent antiplatelet activity (Tables 1, 3). […] Thus, we decided to deeply analyze the effects of compound 4 in platelets. […] We analyzed the activated form of GPIIb/IIIa by studying the binding of FITC-labeled PAC-1 antibody by flow cytometry (Fuentes et al., [2014a]).

CD63 = CD63 levels on the surface of platelets (flow cytometry); format: cell-based, human; settings: Figure 3B
Description: as §3, §4

P-selectin = P-selectin expression on platelets (flow cytometry); format: cell-based, human; settings: compound at 10 and 40 μM, Figure 3C
Description: as §3, §4

Row | Molecule | cytotoxicity on platelets by LDH leakage (in words) (washed platelets) | Cytotoxic activity Mean (%) ± SD (washed platelets) | IC50 ([1]; Homo sapiens) | IC50 ([2]; Homo sapiens) | melting point | also measured
1 | 2-((2-bromophenyl)thio)-3-hydroxynaphthalene-1,4-dione [Compound 2] | did not exert cytotoxicity | 14.72 ± 10.92% |  |  |  | IC50 [1]: 11.2 ± 3.9 µM; IC50 [2]: 112 ± 17.5 µM
2 | 2-((4-Bromophenyl)thio)-3-hydroxynaphthalene-1,4-dione [Compound 4] | no cytotoxicity was observed; also recorded: did not exert cytotoxicity; also recorded: non-toxic | 22.38 ± 5.78% |  |  |  | phosphatidylserine exposure (platelets): unable to affect; PAC-1 binding to platelets (GPIIb/IIIa activation) (GPIIb/IIIa; TRAP-6-induced): inhibited; PAC-1 binding to platelets (GPIIb/IIIa activation) (GPIIb/IIIa; collagen-induced): inhibited; expression of CD63 on platelets' membrane (CD63; after activation with TRAP-6 (5 μM)): decreased; expression of CD63 on platelets' membrane (CD63; after activation with collagen (1 μg/mL)): decreased; P-selectin expression on activated platelets (P-selectin; TRAP-6 (5 μM)): inhibited; P-selectin expression on activated platelets (P-selectin; collagen (1 μg/mL)): inhibited; IC50 [1]: 5.58 ± 1.01 µM; IC50 [2]: 15 ± 1.52 µM
3 | O=C1C(O)=C(Sc2ccccc2)C(=O)c2ccccc21 [Compound 1, 2-Hydroxy-3-(phenylthio)naphthalene-1,4-dione] | did not exert cytotoxicity | 22.35 ± 2.94% | 14.6 ± 5.43 µM | 155 ± 55.2 µM |  | 
4 | COC(=O)c1ccccc1SC1=C(O)C(=O)c2ccccc2C1=O [Compound 5, Methyl 2-((3-hydroxy-1,4-dioxo-1,4-dihydronaphthalen-2-yl)thio)benzoate] | had a cytotoxic activity | 31.12 ± 3.06 % |  |  | 235 °C (dec.) | 
5 | O=C1C(O)=C(Sc2ccccc2F)C(=O)c2ccccc21 [Compound 6, 2-((2-Fluorophenyl)thio)-3-hydroxynaphthalene-1,4-dione] | did not exert cytotoxicity | 21.77 ± 2.37% | 10.6 ± 2.25 µM | > 500 µM |  | 
6 | O=C1C(O)=C(Sc2cccc(F)c2)C(=O)c2ccccc21 [Compound 7, 2-((3-Fluorophenyl)thio)-3-hydroxynaphthalene-1,4-dione] | did not exert cytotoxicity | 21.50 ± 2.37% | 11.1 ± 1.69 µM | 134 ± 17.3 µM | 268.7 °C (dec.) | 
7 | O=C1C(O)=C(Sc2ccc(F)cc2)C(=O)c2ccccc21 [Compound 8, 2-((4-Fluorophenyl)thio)-3-hydroxynaphthalene-1,4-dione] | did not exert cytotoxicity | 21.62 ± 4.17% | 12.1 ± 1.21 µM | 108 ± 53 µM | 268 °C (dec.) | 
8 | O=C1C=C(O)C(=O)c2ccccc21 [Lawsone, 2-hydroxy-1,4-naphthoquinone] | had a cytotoxic activity | 32.80 ± 3.13 % |  |  |  | 

Source: PMC7417813, “Synthesis and Biological Evaluation of Thio-Derivatives of 2-Hydroxy-1,4-Naphthoquinone (Lawsone) as Novel Antiplatelet Agents” (Frontiers in Chemistry, 2020)
